This is an account of results in patent US20220281835A1, “PHENOL DERIVATIVES FOR USE AS ANTIMICROBIAL, ANTIBACTERIAL, BACTERICIDE” (SPECIAL PRODUCT'S LINE S.P.A., priority 2019, published 2022).

Each structure is given as a SMILES string. Values after ≈ are worked out from the molar mass of the structure shown.

Data set [1] has as its system Enterococcus faecalis strain 2 (collection). As to the kind of experiment: MIC/MBC broth-dilution (micromethod), CLSI. It is filed as cell-based. The settings on record: for MBC: E. FAECALIS strain 2, kills 99,9% of initial population. The text has this: (§1) Determination of Minimal Inhibitory Concentration (MIC), Minimal Bactericidal Concentration (MBC), bactericidal curves and killing rate on Gram positive and Gram negative bacteria strains, for the evaluation of the bactericidal activity of compounds of example 1 (n. 1 to 14).
(§2) Sensitivity tests have been performed in broth-dilution (micromethod) with the purpose to test the possible bacteriostatic and/or bactericidal power in different compounds, in accordance with CLSI guidelines (Clinical and Laboratory Standards Institute). In details, phenotypic methods based on in vitro MIC and MBC determination have been performed on previously isolated bacterial strains, identified and characterized at the level of their antibiotic susceptibility profile. According to MIC and MBC data, the Killing Rate was calculated as the ratio between MBC and MIC on which basis it is possible to define the compounds tested as bactericides (killing rate=1-4), or bacteriostatic (killing rate >4).
(§3) Preparation of the solution containing molecules: for each molecule to be tested, solutions were made as DMSO Stock, with a concentration of 2.560 mg/ml, used to test 12 dilutions with the following scalar drug concentrations: 512-256-128-64-32-16-8-4-2-1-0.5-0.25 μg/ml. The scalar dilutions were prepared directly on plates by using Mueller Hinton Broth (MHB) as a solvent.
(§4) Bacterial suspension preparation: cryostrains preserved at −80° C. were recovered by incubation in growth medium (Brain Heart Infusion Broth, BHI) for 24-48 hours at 37° C. followed by passages in agar growth medium (Columbia Blood Agar). Colonies with less than 30 hours are suspended in MHB with the purpose to prepare a bacterial suspension with a turbidity of 0.5 MF, containing approximately 1.5×10^8 cfu/ml. This injection is additionally diluted in MHB until reaching a final concentration of 5×10^5 cfu/ml (range 3-7×10^5 cfu/ml). Identical volumes of this bacterial suspension are added on a plate, for each well containing drug scalar dilutions, to obtain a final concentration between 512 a 0.25 μg/ml. The set up of bacterial suspensions as well as the passage on slate has always been performed within 30 minutes, in order not to alter the concentration of the bacterial suspension. Simultaneously, check in broth-microdilution only with solvent (in order to exclude that the effect of growth inhibition might be due to the drug solution solvent), positive growth control in absence of DMSO and drug, and negative purity control only with injection broth are performed. As a consequence the slate is incubated at 37° C. for 24 and 48 hours in aerobes. The 24 hours MIC is considered as the minimum drug concentration able to inhibit bacterial growth, which makes it possible to observe the absence of bacterial growth and the absence of turbidity. The same observations are valid to evaluate 48 hours MIC. After the incubation, an equal volume of bacterial suspension from each well is plated on agar growth medium and incubated for 24-48 hours at a temperature of 37° C. in aerobes, in order to define the MBC after the incubation. The MBC is evaluated as the minimum concentration of drug able to kill the 99,9% of the initial bacterial population.
(§5) Bacterial strains: the bactericidal and/or bacteriostatic power of the synthesized compounds can be determined by using standard reference strains such as: • 1. S. Aureus ATCC 25923 res kan, tob, res streptogramine (sga-sgb, efflux), res mupirocina (at low level), res trimetoprim; • 2. S. Aureus strain 1 (collection) mec a+, res kan tob gen, res quinolones, lincosamides, res streptogramine (sga-sgb), mlsb+sa constituent, mlsb constituent, res mupirocine (low level), res trimetoprim; • 3. S. Aureus strain 2 (collection) acquired penicillinase, res kan tob, res streptogramine (sga-sgb, efflux), res mupirocine (low level), res trimetoprim; • 4. Enterococcus faecalis ATCC 51299 (str+gen res at high level, mlsb res, simil van b res); • 5. […]

Data set [2] concerns S. Aureus strain 1 (collection) mec a+. Kind of data set: MIC/MBC broth-dilution (micromethod), CLSI. It counts as cell-based. The settings on record: Staphylococcus aureus; for MBC: kills 99,9% of initial population.
Text: as §1
In details, phenotypic methods based on in vitro MIC and MBC determination have been performed on previously isolated bacterial strains, identified and characterized at the level of their antibiotic susceptibility profile. According to MIC and MBC data, the Killing Rate was calculated as the ratio between MBC and MIC on which basis it is possible to define the compounds tested as bactericides (killing rate=1-4), or bacteriostatic (killing rate >4).
as §3
as §4, with “The 24 hours MIC is considered as the minimum drug concentration able to inhibit bacterial growth, which makes it possible to observe the absence of bacterial growth and the absence of turbidity.” left out, “incubation.” for “incubation. The MBC is evaluated as the minimum concentration of drug able to kill the 99,9% of the initial bacterial population.”
Bacterial strains: the bactericidal and/or bacteriostatic power of the synthesized compounds can be determined by using standard reference strains such as: • 1. S. Aureus ATCC 25923 res kan, tob, res streptogramine (sga-sgb, efflux), res mupirocina (at low level), res trimetoprim; • 2. S. Aureus strain 1 (collection) mec a+, res kan tob gen, res quinolones, lincosamides, res streptogramine (sga-sgb), mlsb+sa constituent, mlsb constituent, res mupirocine (low level), res trimetoprim; • 3. S. Aureus strain 2 (collection) acquired penicillinase, res kan tob, res streptogramine (sga-sgb, efflux), res mupirocine (low level), res trimetoprim; • 4. Enterococcus faecalis ATCC 51299 (str+gen res at high level, mlsb res, simil van b res); • 5. Enterococcus faecalis strain 1 (collection) (str+kan res at high level str res at high level tetracycline res); • 6. Enterococcus faecalis strain 2 (collection) (kan res at high level); • 7. E. coli of Collection: RESISTANT to ampicilline, amox+ac clav, ampicillinr+sulbactam, cefalexine, cefuroxime, cefuroxime axetil, cefixime, cefpodoxime, cefotaxime, ceftazidime, ceftriaxone, netilmicine, tobramicine, ciprofloxcine, trim/sulfametox, esbl pos, SENSITIVE to meropenem and gentamicine, INTERMEDIATE to amikacine; • 8. 8.

The test system of data set [3] is P. Aeruginosa of collection. Kind of data set: MIC/MBC broth-dilution (micromethod), CLSI. It counts as cell-based. The settings on record: Pseudomonas aeruginosa.
Text: as §1, §2, §3, §4, §5

Data set [4] concerns S. Aureus strain 2 (collection). Kind of data set: MIC/MBC broth-dilution (micromethod), CLSI. It is filed as cell-based. The settings on record: Staphylococcus aureus; for MBC: kills 99,9% of initial population; for MIC: values without asterisk.
Text: as §1, §2, §3, §4, §5

For data set [5], the system named is Enterococcus faecalis strain 1 (collection). As to the kind of experiment: MIC/MBC broth-dilution (micromethod), CLSI. It is filed as cell-based. The settings on record: for MBC: E. FAECALIS strain 1, kills 99,9% of initial population.
Text: as §1, §2, §3, §4, §5

In data set [6] the test system is Enterococcus faecalis ATCC 51299. As to the kind of experiment: MIC/MBC broth-dilution (micromethod), CLSI. It is filed as cell-based. The settings on record: for MBC: ATCC51299, E. FAECALIS ATCC 51299, kills 99,9% of initial population; for MIC: ATCC51299, E. FAECALIS ATCC 51299, values without asterisk.
Text: as §1, §2, §3, §4, §5

Another data set has as its system E. coli of Collection. As to the kind of experiment: MIC/MBC broth-dilution (micromethod), CLSI. It is filed as cell-based. The settings on record: Escherichia coli.
Text: as §1, §2, §3, §4, §5

Data set [7] relates to A. baumannii of collection. Kind of data set: MIC/MBC broth-dilution (micromethod), CLSI. It counts as cell-based. The settings on record: Acinetobacter baumannii; for MBC: kills 99,9% of initial population.
Text: as §1, §2, §3, §4, §5

For another data set, the system named is S. Aureus ATCC 25923. Kind of data set: MIC/MBC broth-dilution (micromethod), CLSI. It counts as cell-based. The settings on record: Staphylococcus aureus; for MBC: ATCC25923, kills 99,9% of initial population.
Text: as §1, §2, §3, §4, §5

Setting [8] is: E. FAECALIS strain 2, marked *: MIC value read at 48 hours.
Where [9] appears, read: E. FAECALIS strain 1, marked *: MIC value read at 48 hours.
[10] abbreviates: marked *: MIC value read at 48 hours.
The mark [11] stands for this setting: ATCC25923, values without asterisk.
[12] abbreviates: E. FAECALIS strain 2, values without asterisk.

On to `C/C(=C\c1ccc(-c2ccc(O)c(C34CC5CC(CC(C5)C3)C4)c2)cc1)C(=O)O` [Compound 3, E-2-Methyl-3-[3′-(adamantan-1-yl)-4′-hydroxybiphenyl-4-yl]acrylic Acid], for which the melting point was found to be 200 °C. For the same compound, the MBC in data set [1] was found to be 8 mg/L (≈ 20.6 µM). The same compound gave a minimal inhibitory concentration (MIC) in [1] (setting [8]) of 0.5 to 1 mg/L (≈ 1.29 to 2.57 µM). Moreover, the MBC in data set [2] was 4 to 8 mg/L (≈ 10.3 to 20.6 µM). This compound also came in with an MIC in data set [2] (values without asterisk) of 2 mg/L (≈ 5.15 µM).
With `O=C(O)/C=C/c1ccc(-c2ccc(O)c(C34CC5CC(CC(C5)C3)C4)c2)cc1` [adarotene, reference compound], the MIC in data set [3] was 256 mg/L (≈ 684 µM); in [1] (setting [8]), 0.5 to 1 mg/L (≈ 1.34 to 2.67 µM); in data set [4] it was 4 mg/L (≈ 10.7 µM); in data set [5] (setting [9]) it was 2 to 4 mg/L (≈ 5.34 to 10.7 µM); in data set [6], 2 mg/L (≈ 5.34 µM); with E. coli of Collection, 256 mg/L (≈ 684 µM). For the same compound, the MIC in data set [7] was 128 mg/L (≈ 342 µM); with S. Aureus ATCC 25923 (ATCC25923, marked *: MIC value read at 48 hours), 4 to 8 mg/L (≈ 10.7 to 21.4 µM); in [2] (setting [10]), 4 to 8 mg/L (≈ 10.7 to 21.4 µM). Also, the MBC in [1] was 16 mg/L (≈ 42.7 µM); in [4], 8 mg/L (≈ 21.4 µM); in [5] it was 32 mg/L (≈ 85.5 µM); in data set [6], 32 mg/L (≈ 85.5 µM); in [7], 512 mg/L (≈ 1370 µM); in the data set with S. Aureus ATCC 25923, 16 mg/L (≈ 42.7 µM). For the same compound, in [2], the MBC worked out at 16 mg/L (≈ 42.7 µM).
As to `CON=Cc1cc(/C=C/C(=O)O)ccc1-c1ccc(O)c(C23CC4CC(CC(C4)C2)C3)c1` [Compound 13, 3-[3′-Adamantan-1-yl-4′-hydroxy-2-methoxyimino-methyl-biphenyl-4-yl]-acrylic acid], the MIC in data set [3] is 256 mg/L (≈ 593 µM); in data set [1] (setting [8]), 4 to 8 mg/L (≈ 9.27 to 18.5 µM); in [4], 4 mg/L (≈ 9.27 µM); in data set [5] (setting [9]), 4 to 8 mg/L (≈ 9.27 to 18.5 µM); in [6], 8 mg/L (≈ 18.5 µM); against E. coli of Collection it was 512 mg/L (≈ 1190 µM). The minimal inhibitory concentration (MIC) is 128 mg/L (≈ 297 µM) in data set [7], 2 mg/L (≈ 4.63 µM) against S. Aureus ATCC 25923 (setting [11]) and 2 to 4 mg/L (≈ 4.63 to 9.27 µM) in data set [2] (setting [10]). Moreover, the MBC in data set [1] is 16 mg/L (≈ 37.1 µM); in data set [4], 32 mg/L (≈ 74.2 µM); in [5], 16 mg/L (≈ 37.1 µM); in data set [6], 32 mg/L (≈ 74.2 µM); in [7] it was 512 mg/L (≈ 1190 µM); against S. Aureus ATCC 25923, 4 mg/L (≈ 9.27 µM). In addition, the MBC in data set [2] was found to be 4 mg/L (≈ 9.27 µM).
As for `CC(C)(C)ON=Cc1cc(C=CC(=O)O)ccc1-c1ccc(O)c(C23CC4CC(CC(C4)C2)C3)c1` [Compound 12, 3-[3′-Adamantan-1-yl-4′hydroxy-2-tert-butoxyiminomethyl-biphenyl-4-yl]-acrylic acid], the MIC came to 256 mg/L (≈ 541 µM) in data set [3]; 2 mg/L (≈ 4.22 µM) in [1] (setting [12]); 2 mg/L (≈ 4.22 µM) in data set [4]; 2 mg/L (≈ 4.22 µM) in [5] (E. FAECALIS strain 1, values without asterisk); 2 mg/L (≈ 4.22 µM) in [6]; 256 mg/L (≈ 541 µM) against E. coli of Collection. The figures for the MIC (in [7]; in the data set with S. Aureus ATCC 25923 (setting [11]); in [2] (setting [10])) were 128 mg/L (≈ 270 µM), 2 mg/L (≈ 4.22 µM) and 2 to 4 mg/L (≈ 4.22 to 8.45 µM), respectively. Besides, the MBC in data set [1] came to 4 mg/L (≈ 8.45 µM); in data set [4] it was 2 mg/L (≈ 4.22 µM); in data set [5] it was 8 mg/L (≈ 16.9 µM); in [6] it was 8 mg/L (≈ 16.9 µM); with S. Aureus ATCC 25923, 4 mg/L (≈ 8.45 µM); in data set [2] it was 4 mg/L (≈ 8.45 µM).
`O=C(O)/C(F)=C\c1ccc(-c2ccc(O)c(C34CC5CC(CC(C5)C3)C4)c2)cc1` [Compound 5, E-2-Fluoro-3-[3′-(adamantan-1-yl)-4′-hydroxybiphenyl-4-yl]-acrylic Acid]: the melting point turned out to be 202 °C. The MBC in data set [1] stood at 16 mg/L (≈ 40.8 µM). Besides, in data set [1] (setting [12]), the MIC stood at 4 mg/L (≈ 10.2 µM). This compound also displayed an MBC in data set [2] of 8 to 16 mg/L (≈ 20.4 to 40.8 µM). The compound further showed an MIC in [2] (setting [10]) of 2 to 4 mg/L (≈ 5.1 to 10.2 µM).
